Measurements from ChEMBL document CHEMBL1671627, “Increasing trends in antimicrobial resistance among clinically important anaerobes and Bacteroides fragilis isolates causing nosocomial infections: emerging resistance to carbapenems” (2008).
Converted amounts (≈) assume the structure as drawn.

What was measured:
[1] = system: Bacteroides fragilis; experiment: Antibacterial activity against Bacteroides fragilis assessed as susceptible isolates by CLSI agar dilution method; type: functional
[2] = system: Bacteroides fragilis; experiment: Antibacterial activity against Bacteroides fragilis assessed as resistant isolates by CLSI agar dilution method; type: functional
[3] = system: Bacteroides thetaiotaomicron; experiment: Antibacterial activity against beta-lactamase producing Bacteroides thetaiotaomicron assessed as susceptible isolates by CLSI agar dilution method; type: functional
[4] = system: Bacteroides thetaiotaomicron; experiment: Antibacterial activity against beta-lactamase producing Bacteroides thetaiotaomicron assessed as resistant isolates by CLSI agar dilution method; type: functional
[5] = system: Phocaeicola vulgatus; experiment: Antibacterial activity against beta-lactamase producing Bacteroides vulgatus by CLSI agar dilution method; type: functional
[6] = system: Phocaeicola vulgatus; experiment: Antibacterial activity against beta-lactamase producing Bacteroides vulgatus assessed as susceptible isolates by CLSI agar dilution method; type: functional
[7] = system: Phocaeicola vulgatus; experiment: Antibacterial activity against beta-lactamase producing Bacteroides vulgatus assessed as resistant isolates by CLSI agar dilution method; type: functional
[8] = system: Bacteroides uniformis; experiment: Antibacterial activity against beta-lactamase producing Bacteroides uniformis by CLSI agar dilution method; type: functional
[9] = system: Bacteroides uniformis; experiment: Antibacterial activity against beta-lactamase producing Bacteroides uniformis assessed as susceptible isolates by CLSI agar dilution method; type: functional
[10] = system: Bacteroides uniformis; experiment: Antibacterial activity against beta-lactamase producing Bacteroides uniformis assessed as resistant isolates by CLSI agar dilution method; type: functional
[11] = system: Bacteroides caccae; experiment: Antibacterial activity against beta-lactamase producing Bacteroides caccae by CLSI agar dilution method; type: functional
[12] = system: Bacteroides caccae; experiment: Antibacterial activity against beta-lactamase producing Bacteroides caccae assessed as susceptible isolates by CLSI agar dilution method; type: functional
[13] = system: Bacteroides caccae; experiment: Antibacterial activity against beta-lactamase producing Bacteroides caccae assessed as resistant isolates by CLSI agar dilution method; type: functional
[14] = system: Fusobacterium varium; experiment: Antibacterial activity against Fusobacterium varium by CLSI agar dilution method; type: functional
[15] = system: Fusobacterium nucleatum; experiment: Antibacterial activity against Fusobacterium nucleatum by CLSI agar dilution method; type: functional
[16] = system: Fusobacterium mortiferum; experiment: Antibacterial activity against Fusobacterium mortiferum by CLSI agar dilution method; type: functional
[17] = system: Fusobacterium necrophorum; experiment: Antibacterial activity against Fusobacterium necrophorum by CLSI agar dilution method; type: functional
[18] = system: Fusobacterium varium; experiment: Antibacterial activity against Fusobacterium varium assessed as susceptible isolates by CLSI agar dilution method; type: functional
[19] = system: Fusobacterium nucleatum; experiment: Antibacterial activity against Fusobacterium nucleatum assessed as susceptible isolates by CLSI agar dilution method; type: functional
[20] = system: Fusobacterium mortiferum; experiment: Antibacterial activity against Fusobacterium mortiferum assessed as susceptible isolates by CLSI agar dilution method; type: functional
[21] = system: Fusobacterium necrophorum; experiment: Antibacterial activity against Fusobacterium necrophorum assessed as susceptible isolates by CLSI agar dilution method; type: functional
[22] = system: Fusobacterium varium; experiment: Antibacterial activity against Fusobacterium varium assessed as resistant isolates by CLSI agar dilution method; type: functional
[23] = system: Fusobacterium nucleatum; experiment: Antibacterial activity against Fusobacterium nucleatum assessed as resistant isolates by CLSI agar dilution method; type: functional
[24] = system: Fusobacterium mortiferum; experiment: Antibacterial activity against Fusobacterium mortiferum assessed as resistant isolates by CLSI agar dilution method; type: functional
[25] = system: Fusobacterium necrophorum; experiment: Antibacterial activity against Fusobacterium necrophorum assessed as resistant isolates by CLSI agar dilution method; type: functional
[26] = system: Prevotella buccae; experiment: Antibacterial activity against Prevotella buccae by CLSI agar dilution method; type: functional; conditions: Segatella buccae
[27] = system: Prevotella bivia; experiment: Antibacterial activity against Prevotella bivia by CLSI agar dilution method; type: functional
[28] = system: Prevotella intermedia; experiment: Antibacterial activity against Prevotella intermedia by CLSI agar dilution method; type: functional
[29] = system: Prevotella melaninogenica; experiment: Antibacterial activity against Prevotella melaninogenica by CLSI agar dilution method; type: functional
[30] = system: Prevotella buccae; experiment: Antibacterial activity against Prevotella buccae assessed as susceptible isolates by CLSI agar dilution method; type: functional, Segatella buccae
[31] = system: Prevotella bivia; experiment: Antibacterial activity against Prevotella bivia assessed as susceptible isolates by CLSI agar dilution method; type: functional
[32] = system: Prevotella intermedia; experiment: Antibacterial activity against Prevotella intermedia assessed as susceptible isolates by CLSI agar dilution method; type: functional
[33] = system: Prevotella melaninogenica; experiment: Antibacterial activity against Prevotella melaninogenica assessed as susceptible isolates by CLSI agar dilution method; type: functional
[34] = system: Prevotella buccae; experiment: Antibacterial activity against Prevotella buccae assessed as resistant isolates by CLSI agar dilution method; type: functional, Segatella buccae
[35] = system: Prevotella bivia; experiment: Antibacterial activity against Prevotella bivia assessed as resistant isolates by CLSI agar dilution method; type: functional
[36] = system: Prevotella intermedia; experiment: Antibacterial activity against Prevotella intermedia assessed as resistant isolates by CLSI agar dilution method; type: functional
[37] = system: Prevotella melaninogenica; experiment: Antibacterial activity against Prevotella melaninogenica assessed as resistant isolates by CLSI agar dilution method; type: functional
[38] = system: Veillonella parvula; experiment: Antibacterial activity against Veillonella parvula by CLSI agar dilution method; type: functional
[39] = system: Clostridium perfringens; experiment: microbe, parasite or virus in culture; type: functional
[40] = system: Clostridium paraputrificum; experiment: Antibacterial activity against beta-lactamase producing Clostridium paraputrificum by CLSI agar dilution method; type: functional
[41] = system: Clostridium septicum; experiment: Antibacterial activity against beta-lactamase producing Clostridium septicum by CLSI agar dilution method; type: functional
[42] = system: Clostridium tertium; experiment: Antibacterial activity against beta-lactamase producing Clostridium tertium by CLSI agar dilution method; type: functional
[43] = system: Clostridium paraputrificum; experiment: Antibacterial activity against beta-lactamase producing Clostridium paraputrificum assessed as susceptible isolates by CLSI agar dilution method; type: functional
[44] = system: Clostridium septicum; experiment: Antibacterial activity against beta-lactamase producing Clostridium septicum assessed as susceptible isolates by CLSI agar dilution method; type: functional
[45] = system: Clostridium tertium; experiment: Antibacterial activity against beta-lactamase producing Clostridium tertium assessed as susceptible isolates by CLSI agar dilution method; type: functional
[46] = system: Bacteroides fragilis; experiment: Antibacterial activity against Bacteroides fragilis by CLSI agar dilution method; type: functional
[47] = system: Bacteroides thetaiotaomicron; experiment: Antibacterial activity against beta-lactamase producing Bacteroides thetaiotaomicron by CLSI agar dilution method; type: functional
[48] = system: Clostridium paraputrificum; experiment: Antibacterial activity against beta-lactamase producing Clostridium paraputrificum assessed as resistant isolates by CLSI agar dilution method; type: functional
[49] = system: Clostridium septicum; experiment: Antibacterial activity against beta-lactamase producing Clostridium septicum assessed as resistant isolates by CLSI agar dilution method; type: functional
[50] = system: Clostridium tertium; experiment: Antibacterial activity against beta-lactamase producing Clostridium tertium assessed as resistant isolates by CLSI agar dilution method; type: functional
[51] = system: Peptostreptococcus anaerobius; experiment: Antibacterial activity against beta-lactamase producing Peptostreptococcus anaerobius by CLSI agar dilution method; type: functional
[52] = system: Peptostreptococcus anaerobius; experiment: Antibacterial activity against beta-lactamase producing Peptostreptococcus anaerobius assessed as susceptible isolates by CLSI agar dilution method; type: functional
[53] = system: Peptostreptococcus anaerobius; experiment: Antibacterial activity against beta-lactamase producing Peptostreptococcus anaerobius assessed as resistant isolates by CLSI agar dilution method; type: functional
[54] = system: Parvimonas micra; experiment: Antibacterial activity against beta-lactamase producing Micromonas micros by CLSI agar dilution method; type: functional
[55] = system: Parvimonas micra; experiment: Antibacterial activity against beta-lactamase producing Micromonas micros assessed as susceptible isolates by CLSI agar dilution method; type: functional
[56] = system: Parvimonas micra; experiment: Antibacterial activity against beta-lactamase producing Micromonas micros assessed as resistant isolates by CLSI agar dilution method; type: functional
[57] = system: Peptoniphilus asaccharolyticus; experiment: Antibacterial activity against beta-lactamase producing Peptoniphilus asaccharolyticus by CLSI agar dilution method; type: functional
[58] = system: Peptoniphilus asaccharolyticus; experiment: Antibacterial activity against beta-lactamase producing Peptoniphilus asaccharolyticus assessed as susceptible isolates by CLSI agar dilution method; type: functional
[59] = system: Peptoniphilus asaccharolyticus; experiment: Antibacterial activity against beta-lactamase producing Peptoniphilus asaccharolyticus assessed as resistant isolates by CLSI agar dilution method; type: functional
[60] = system: Finegoldia magna; experiment: Antibacterial activity against beta-lactamase producing Finegoldia magna by CLSI agar dilution method; type: functional
[61] = system: Finegoldia magna; experiment: Antibacterial activity against beta-lactamase producing Finegoldia magna assessed as susceptible isolates by CLSI agar dilution method; type: functional
[62] = system: Finegoldia magna; experiment: Antibacterial activity against beta-lactamase producing Finegoldia magna assessed as resistant isolates by CLSI agar dilution method; type: functional

CO[C@@]1(NC(=O)CSCC#N)C(=O)N2C(C(=O)O)=C(CSc3nnnn3C)CS[C@@H]21 [CEFMETAZOLE]
Activity [1]: 72% | Activity [2]: 13% | Activity [3]: 20% | Activity [4]: 17% | MIC50 [5]: 32 µg/mL (≈ 67.9 µM) | MIC90 [5]: 128 µg/mL (≈ 271 µM) | Activity [6]: 44% | Activity [7]: 30% | MIC50 [8]: 32 µg/mL (≈ 67.9 µM) | MIC90 [8]: 128 µg/mL (≈ 271 µM) | Activity [9]: 44% | Activity [10]: 30% | MIC50 [11]: 32 µg/mL (≈ 67.9 µM) | MIC90 [11]: 128 µg/mL (≈ 271 µM) | Activity [12]: 44% | Activity [13]: 30% | MIC50 [14]: 1 µg/mL (≈ 2.12 µM) | MIC90 [14]: 2 µg/mL (≈ 4.24 µM) | MIC50 [15]: 1 µg/mL (≈ 2.12 µM) | MIC90 [15]: 2 µg/mL (≈ 4.24 µM) | MIC50 [16]: 1 µg/mL (≈ 2.12 µM) | MIC90 [16]: 2 µg/mL (≈ 4.24 µM) | MIC50 [17]: 1 µg/mL (≈ 2.12 µM) | MIC90 [17]: 2 µg/mL (≈ 4.24 µM) | Activity [18]: 100% | Activity [19]: 100% | Activity [20]: 100% | Activity [21]: 100% | Activity [22]: 0% | Activity [23]: 0% | Activity [24]: 0% | Activity [25]: 0% | MIC50 [26]: 2 µg/mL (≈ 4.24 µM) | MIC90 [26]: 8 µg/mL (≈ 17 µM) | MIC50 [27]: 2 µg/mL (≈ 4.24 µM) | MIC90 [27]: 8 µg/mL (≈ 17 µM) | MIC50 [28]: 2 µg/mL (≈ 4.24 µM) | MIC90 [28]: 8 µg/mL (≈ 17 µM) | MIC50 [29]: 2 µg/mL (≈ 4.24 µM) | MIC90 [29]: 8 µg/mL (≈ 17 µM) | Activity [30]: 94% | Activity [31]: 94% | Activity [32]: 94% | Activity [33]: 94% | Activity [34]: 6% | Activity [35]: 6% | Activity [36]: 6% | Activity [37]: 6% | MIC [38]: > 0.25 µg/mL | MIC50 [39]: 1 µg/mL (≈ 2.12 µM) | MIC90 [39]: 16 µg/mL (≈ 33.9 µM) | MIC50 [40]: 1 µg/mL (≈ 2.12 µM) | MIC90 [40]: 16 µg/mL (≈ 33.9 µM) | MIC50 [41]: 1 µg/mL (≈ 2.12 µM) | MIC90 [41]: 16 µg/mL (≈ 33.9 µM) | MIC50 [42]: 1 µg/mL (≈ 2.12 µM) | MIC90 [42]: 16 µg/mL (≈ 33.9 µM) | Activity [43]: 89% | Activity [44]: 89% | Activity [45]: 89% | MIC50 [46]: 16 µg/mL (≈ 33.9 µM) | MIC90 [46]: 64 µg/mL (≈ 136 µM) | MIC50 [47]: 32 µg/mL (≈ 67.9 µM) | MIC90 [47]: 64 µg/mL (≈ 136 µM) | Activity [48]: 0% | Activity [49]: 0% | Activity [50]: 0% | MIC50 [51]: 0.5 µg/mL (≈ 1.06 µM) | MIC90 [51]: 8 µg/mL (≈ 17 µM) | Activity [52]: 97% | Activity [53]: 0% | MIC50 [54]: 0.5 µg/mL (≈ 1.06 µM) | MIC90 [54]: 8 µg/mL (≈ 17 µM) | Activity [55]: 97% | Activity [56]: 0% | MIC50 [57]: 0.5 µg/mL (≈ 1.06 µM) | MIC90 [57]: 8 µg/mL (≈ 17 µM) | Activity [58]: 97% | Activity [59]: 0% | MIC50 [60]: 0.5 µg/mL (≈ 1.06 µM) | MIC90 [60]: 8 µg/mL (≈ 17 µM) | Activity [61]: 97% | Activity [62]: 0%
